The results in this text go back to US9884854B2, “N-[(pyrimidinylamino)propanyl]-and N[(pyrazinylamino)proppanyl]arylcarboxamides” (Boehringer Ingelheim International GmbH, priority 2016, dated 2018).

For one series, the system named is human MDR1 P-gp. Put plainly: Assay D: efflux in MDCK cells transfected with the human MDR1 gene. The class given is in vitro ADME, canine. Conditions: dog; MDCK-MDR1 monolayers, pH 7.4, 37° C.; read-out: MDCK efflux ratio (BA/AB). How it is done:
The MDCK assay provides information on the potential of a compound to pass the blood brain barrier. Permeability measurements across polarized, confluent MDCK-MDR1 cell monolayers grown on permeable filter supports are used as an in vitro absorption model: apparent permeability coefficients (PE) of the compounds across the MDCK-MDR1 cell monolayers are measured (pH 7.4, 37° C.) in apical-to-basal (AB) and basal-to-apical (BA) transport direction. The AB permeability (PEAB) represents drug absorption from the blood into the brain and the BA permeability (PEBA) drug efflux from the brain back into the blood via both, passive permeability as well as active transport mechanisms mediated by efflux and uptake transporters that are expressed on the MDCK-MDR1 cells, predominantly by the overexpressed human MDR1 P-gp. Identical or similar permeabilities in both transport directions indicate passive permeation, vectorial permeability points to additional active transport mechanisms. Higher PEBA than PEAB (PEBA/PEAB>5) indicates the involvement of active efflux mediated by MDR1 P-gp, which might compromises the goal to achieve sufficient brain exposure. Therefore this assay provides valuable support for selection of compounds applicable for further in vivo testing. High permeability not limited by efflux at the blood brain barrier is a favourable characteristic for compounds that are to be used for drugs acting primarily in the CNS
D. Assessment of Efflux in Madin-Darby Canine Kidney (MDCK) Cells Transfected with the Human MDR1 Gene
Apparent permeability coefficients (PE) of the compounds across the MDCK-MDR1 cell monolayers are measured (pH 7.4, 37° C.) in apical-to-basal (AB) and basal-to-apical (BA) transport direction. AB permeability (PEAB) represents drug absorption from the blood into the brain and BA permeability (PEBA) drug efflux from the brain back into the blood via both passive permeability as well as active transport mechanisms mediated by efflux and uptake transporters that are expressed on the MDCK-MDR1 cells, predominantly by the overexpressed human MDR1 P-gp. The compounds are assigned to permeability/absorption classes by comparison of the AB permeabilities with the AB permeabilities of reference compounds with known in vitro permeability and oral absorption in the human. Identical or similar permeabilities in both transport directions indicate passive permeation, vectorial permeability points to additional active transport mechanisms. Higher PEBA than PEAB indicates the involvement of active efflux mediated by MDR1 P-gp. Active transport is concentration-dependently saturable.
MDCK-MDR1 cells (1-2×10e5 cells/1 cm2 area) are seeded on filter inserts (Costar transwell polycarbonate or PET filters, 0.4 μm pore size) and cultured (DMEM) for 7 days. Subsequently, the MDR1 expression is boosted by culturing the cells with 5 mM sodium butyrate in full medium for 2 days. Compounds are dissolved in appropriate solvent (like DMSO, 1-20 mM stock solutions). Stock solutions are diluted with HTP-4 buffer (128.13 mM NaCl, 5.36 mM KCl, 1 mM MgSO4, 1.8 mM CaCl2, 4.17 mM NaHCO3, 1.19 mM Na2HPO4×7H2O, 0.41 mM NaH2PO4×H2O, 15 mM HEPES, 20 mM glucose, 0.25% BSA, pH 7.4) to prepare the transport solutions (0.1-300 μM compound, final DMSO<=0.5%). The transport solution (TL) is applied to the apical or basolateral donor side for measuring A-B or B-A permeability (3 filter replicates), respectively. The receiver side contains the same buffer as the donor side. Samples are collected at the start and end of experiment from the donor and at various time intervals for up to 2 hours also from the receiver side for concentration measurement by HPLC-MS/MS or scintillation counting. Sampled receiver volumes are replaced with fresh receiver solution.

Series [1] in a line: Assay C: metabolic stability in human liver microsomes (Human MST). The class given is in vitro ADME. The note with it: pooled human liver microsomes, pH 7.6, 1 μM compound, 37° C., read-out: Human MST t1/2. From the text:
Stability in human liver microsomes refers to the susceptibility of compounds to biotransformation in the context of selecting and/or designing drugs with favorable pharmacokinetic properties. The primary site of metabolism for many drugs is the liver. Human liver microsomes contain the cytochrome P450s (CYPs), and thus represent a model system for studying drug metabolization in vitro. Enhanced stability in human liver microsomes is associated with several advantages, including increased bioavailability and longer half-life, which can enable lower and less frequent dosing of patients. Thus, enhanced stability in human liver microsomes is a favorable characteristic for compounds that are to be used for drugs.
C. Assessment of Metabolic Stability in Human Liver Microsomes (Human MST)
The metabolic stability of the compounds according to the invention may be investigated as follows:
The metabolic degradation of the test compound is assayed at 37° C. with pooled human liver microsomes. The final incubation volume of 100 μL per time point contains TRIS buffer pH 7.6 at room temperature (0.1 M), MgCl2 (5 mM), microsomal protein (1 mg/mL) and the test compound at a final concentration of 1 μM. Following a short pre-incubation period at 37° C., the reactions are initiated by addition of beta-nicotinamide adenine dinucleotide phosphate, reduced form (NADPH, 1 mM), and terminated by transferring an aliquot into solvent after different time points. After centrifugation (10000 g, 5 min), an aliquot of the supernatant is assayed by LC-MS/MS for the amount of parent compound. The half-life (t1/2) is determined by the slope of the semi-logarithmic plot of the concentration-time profile.
For orientation: Microsomes from liver hold many membrane-bound enzymes, among them those of drug oxidation.

A value given as a limit tells only on which side of the number the result lay.

For the compound `CCN(C(=O)c1nc(C)ccc1-n1nccn1)[C@@H](C)CNc1ncc(C(F)(F)F)cn1` [Example 9], in the series with human MDR1 P-gp, the efflux ratio was less than 3. In addition, the half-life at 1 μM in series [1] was 1.67 h.
As for `CCN(C(=O)c1cccc(F)c1-n1nccn1)[C@@H](C)CNc1ncc(C(F)(F)F)cn1` [Example 18], the efflux ratio in the series on human MDR1 P-gp was less than 3. For the same compound, the half-life at 1 μM in series [1] was more than 2 h.
As to `CCN(C(=O)c1ccccc1-n1nccn1)[C@@H](C)CNc1ncc(C(F)(F)F)cn1` [Example 1], the efflux ratio in the series with human MDR1 P-gp was less than 3. Also, the half-life at 1 μM in series [1] was determined as 2 h.
Take `CCN(C(=O)c1cnc(C)nc1-c1ccccc1)[C@@H](C)CNc1ncc(C(F)(F)F)cn1` [Example 17]: the efflux ratio in the series on human MDR1 P-gp was less than 3. Besides, the half-life at 1 μM in series [1] is more than 2 h.
